# Data from patent EP0745595A1, “3-(3-Aryloxyphenyl)-1-(substituted methyl)-s-triazine-2,4,6-oxo or thiotrione herbicidal agents” (American Cyanamid Company, priority 1995, dated 1996).
# What was measured:
# Type in all cases: in vivo
# CHENOPODIUM ALBUM, L. = assay: Preemergence herbicidal evaluation, CHEAL (Lambsquarters, Common); settings: four to five weeks after treatment
# How it was run: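 Seeds sown in potting soil cups, then sprayed preemergence with aqueous acetone compound solution at about 0.125 to 0.50 kg per hectare. Greenhouse-grown, rated 4–5 weeks after treatment on a 0–9 visual scale against control.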
# SAGITTARIA PYGMAEA, L. = assay: Preemergence weed control under flooded paddy conditions, SAGPY (Arrowhead (Pygmaea)); settings: preemergence weeds, rated three to four weeks after treatment
# How it was run: (§1)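 Visual 0-9 rating against untreated control, covering stand, vigor, malformation, size and chlorosis, scored three to four weeks post-treatment in a greenhouse. Application was into 1.5-3 cm flood water over silt loam sown at 0.5 cm. The 50/50 v/v aqueous/acetone doses were about 0.5, 0.25, 0.125 and 0.063 kg/ha.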
# [1] = test system: ORYZA SATIVA, L. TEBONNET; assay: Rice tolerance to post-transplant applications under flooded paddy conditions, ORYSAT (Rice, Tebonnet); settings: post-transplant rice, rated three to four weeks after treatment;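 note: applied to flooded soil surface three days after transplanting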
# How it was run: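 Rated on a visual 0–9 scale against untreated plants 3–4 weeks after application, rice (cv. Tebonnet) tolerance was tested by applying compounds (approx. 0.5–0.063 kg/ha, acetone/water 50/50) to flooded soil three days post-transplant, water kept 1.5–3 cm deep.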
# [2] = test system: ABUTILON THEOPHRASTI, MEDIC.; assay: Postemergence herbicidal evaluation, ABUTH (Velvetleaf); settings: rated four to five weeks after treatment, averaged
# How it was run: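 This postemergence herbicide test used two-week-old velvetleaf seedlings grown in jiffy flats. Each compound was sprayed at 40 psi as a dispersion in 50/50 acetone/water with 0.5% TWEEN®20 surfactant. Plants then received routine greenhouse care. After four to five weeks, injury was scored visually on a 0-9 scale against a control, and replicate tests were averaged.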
# GALIUM APARINE = assay: Preemergence herbicidal evaluation, GALAP (Galium); settings: four to five weeks after treatment
# Description: Results of herbicide evaluation are expressed on a rating scale (0-9). The scale is based upon a visual observation of plant stand, vigor, malformation, size, chlorosis and overall plant appearance as compared with a control.
# The preemergence herbicidal activity of the test compounds of the present invention is exemplified by the following tests in which the seeds of a variety of monocotyledonous and dicotyledonous plants are separately mixed with potting soil and planted on top of approximately one inch of soil in separate pint cups. […] The treated cups are then placed on greenhouse benches, watered and cared for in accordance with conventional greenhouse procedures. From four to five weeks after treatment, the tests are terminated and each cup is examined and rated according to the rating system provided in Example 40.
# The compounds evaluated are reported by compound number given in Example 40.
# [3] = test system: CYPERUS SEROTINUS, ROTTB.; assay: Preemergence weed control under flooded paddy conditions, CYPSE (Flatsedge); settings: preemergence weeds, rated three to four weeks after treatment
# How it was run: as §1
SMILES,"CHEAL rating (CHENOPODIUM ALBUM, L.; Rate 0.125 kg/ha)","CHEAL rating (CHENOPODIUM ALBUM, L.; Rate 0.250 kg/ha)","CHEAL rating (CHENOPODIUM ALBUM, L.; Rate 0.500 kg/ha)","SAGPY herbicidal rating (SAGITTARIA PYGMAEA, L.; Rate 0.125 kg/ha)","SAGPY herbicidal rating (SAGITTARIA PYGMAEA, L.; Rate 0.250 kg/ha)","SAGPY herbicidal rating (SAGITTARIA PYGMAEA, L.; Rate 0.500 kg/ha)",ORYSAT herbicidal rating (rice tolerance) ([1]; Rate 0.125 kg/ha),ORYSAT herbicidal rating (rice tolerance) ([1]; Rate 0.250 kg/ha),ORYSAT herbicidal rating (rice tolerance) ([1]; Rate 0.500 kg/ha),"ABUTH, herbicide rating (0-9) ([2]; Rate 0.125 kg/ha)","ABUTH, herbicide rating (0-9) ([2]; Rate 0.250 kg/ha)","ABUTH, herbicide rating (0-9) ([2]; Rate 0.500 kg/ha)",GALAP rating (GALIUM APARINE; Rate 0.125 kg/ha),GALAP rating (GALIUM APARINE; Rate 0.250 kg/ha),GALAP rating (GALIUM APARINE; Rate 0.500 kg/ha),CYPSE herbicidal rating ([3]; Rate 0.125 kg/ha),CYPSE herbicidal rating ([3]; Rate 0.250 kg/ha)
"CCOC(=O)Cn1c(=O)n(CC(=O)OC)c(=O)n(-c2cc(Oc3ccc(C(F)(F)F)cc3Cl)ccc2[N+](=O)[O-])c1=O [Compound 6, 1-Ethyl methyl 5-{5-[(2-chloro-α,α,α-tri-fluoro-p-tolyl)oxy]-2-nitrophenyl}dihydro-2,4,6-trioxo-s-triazine-1,3(2H,4H)-diacetate]",9.0,9.0,9.0,0.0,0.0,0.0,1.0,1.0,1.0,9.0,9.0,9.0,9.0,9.0,9.0,,
"C#CCn1c(=O)n(CC(=O)OCC)c(=O)n(-c2cc(Oc3ccc(C(F)(F)F)cc3Cl)ccc2[N+](=O)[O-])c1=O [Compound 7, Ethyl 3-{5-[(2-chloro-α,α,α-trifluoro-p-tolyl)oxy]-2-nitrophenyl}tetrahydro-2,4,6-trioxo-5-(2-propynyl)-s-triazine-1(2H)-acetate]",,,,0.0,0.0,0.0,0.0,0.0,1.0,,,,4.0,8.0,9.0,0.0,0.0
